Experimental data as given in patent US20080171740A1, “Chemical Compounds” (SMITHKLINE BEECHAM CORPORATION, priority 2004, published 2008).
Like-named read-outs stand apart in the source and are kept apart here.

Experiments:
Assay type in all cases: cell-based
[1] = test system: HIV-1 gp160 (HXB2 strain) mediated fusion with HOS (hCXCR4/hCCR5/hCD4/pHIV-LTR-luciferase) cells; experiment: Cell/cell fusion assay (HEK-293 expressing HIV-1 tat, rev, gp160 with HOS hCXCR4/hCCR5/hCD4/pHIV-LTR-luciferase cells); settings: Homo sapiens, HEK293; luciferase readout after 24 h; read-out: Fusion assay (pIC50) (converted)
Source text: The complete coding sequences of HIV-1 tat (GenBank Accession No. X07861) and rev (GenBank Accession No. M34378) were cloned into pcDNA3.1 expression vectors containing G418 and hygromycin resistance genes, respectively. The complete coding sequence of the HIV-1 (HXB2 strain) gp160 envelope gene (nucleotide bases 6225-8795 of GenBank Accession No. K03455) was cloned into plasmid pCRII-TOPO. The three HIV genes were additionally inserted into the baculovirus shuttle vector, pFastBacMam1, under the transcriptional control of the CMV promoter. A construction of the pHIV-I LTR containing mutated NFkB sequences linked to the luciferase reporter gene was prepared by digesting pcDNA3.1, containing the G418 resistance gene, with Nru I and Bam HI to remove the CMV promoter. LTR-luc was then cloned into the Nru I/Bam HI sites of the plasmid vector. Plasmid preparations were performed after the plasmids were amplified in Escherichia coli strain DH5-alpha. The fidelity of the inserted sequences was confirmed by double-strand nucleotide sequencing using an ABI Prism Model 377 automated sequencer.
Recombinant BacMam baculoviruses were constructed from pFastBacMam shuttle plasmids by using the bacterial cell-based Bac-to-Bac system. Viruses were propagated in Sf9 (Spodoptera frugiperda) cells cultured in Hink's TNM-FH Insect media supplemented with 10% (v/v) fetal bovine serum and 0.1% (v/v) pluronic F-68 according to established protocols.
Human osteosarcoma (HOS) cells that naturally express human CXCR4 were transfected with human CCR5, human CD4 and the pHIV-LTR-luciferase plasmid using FuGENE 6 transfection reagent. Single cells were isolated and grown under selection condition in order to generate a stable HOS (hCXCR4/hCCR5/hCD4/pHIV-LTR-luciferase) clonal cell line. The cells were maintained in Dulbeccos modified Eagles media supplemented with 10% fetal calf serum (FCS), G418 (400 ug/ml), puromycin (1 ug/ml), mycophenolic acid (40 ug/ml), xanthine (250 ug/ml) and hypoxanthine (13.5 ug/ml) to maintain a selection pressure for cells expressing the LTR-luciferase, hCCR5 and hCD4, respectively. Human embryonic kidney (HEK-293) cells stably transfected to express the human macrophage scavenging receptor (Class A, type 1; GenBank Accession No. D90187), were maintained in DMEM/F-12 media (1:1) supplemented with 10% FCS and 1.5 ug/ml puromycin. The expression of this receptor by the HEK-293 cells enhances their ability to stick to tissue culture treated plasticware.
HEK-293 cells were harvested using enzyme-free cell dissociation buffer. The cells were resuspended in DMEM/F-12 media supplemented with 10% FCS and 1.5 ug/ml and counted. Tranductions were performed by direct addition of BacMam baculovirus containing insect cell media to cells. The cells were simultaneously transduced with BacMam baculovirus expressing HIV-1 tat, HIV-1 rev and HIV-1 gp160 (from the HXB2 HIV strain). Routinely an MOI of 10 of each virus was added to the media containing the cells. 2 mM butyric acid was also added to the cells at this stage to increase protein expression in transduced cells. The cells were subsequently mixed and seeded into a flask at 30 million cells per T225. The cells were incubated at 37° C., 5% CO2, 95% humidity for 24 h to allow for protein expression.
HEK and HOS cells were harvested in DMEM/F-12 media containing 2% FCS and DMEM media containing 2% FCS, respectively, with no selection agents added. Compounds were plated as 1 ul spots in 100% DMSO on a 96-well CulturPlate plates. HOS cells (50 ul) were added first to the wells, followed immediately by the HEK cells (50 ul). The final concentration of each cell type was 20,000 cells per well. Following these additions, the cells were returned to a tissue culture incubator (37° C.; 5% CO2/95% air) for an additional 24 h.
Following the 24 h incubation, total cellular luciferase activity was measured using the LucLite Plus assay kit (Packard, Meridien, Conn.). […]

[2] = molecular target: T1, CXCR4 receptor (Homo sapiens, UniProt P61073); experiment: Functional FLIPR assay (block of SDF-1 alpha induced [Ca2+]i change); settings: HEK-293 cells with human CXCR4 BacMam and Gqi5 BacMam; antagonism of SDF-1 alpha; read-out: Functional assay (pIC50) (converted)
T1 construct: expressed in transfected cells; host or cells: HEK-293 cells (stably expressing human macrophage scavenging receptor) transduced with human CXCR4 BacMam and Gqi5 BacMam
T1 sequence (P61073 whole entry): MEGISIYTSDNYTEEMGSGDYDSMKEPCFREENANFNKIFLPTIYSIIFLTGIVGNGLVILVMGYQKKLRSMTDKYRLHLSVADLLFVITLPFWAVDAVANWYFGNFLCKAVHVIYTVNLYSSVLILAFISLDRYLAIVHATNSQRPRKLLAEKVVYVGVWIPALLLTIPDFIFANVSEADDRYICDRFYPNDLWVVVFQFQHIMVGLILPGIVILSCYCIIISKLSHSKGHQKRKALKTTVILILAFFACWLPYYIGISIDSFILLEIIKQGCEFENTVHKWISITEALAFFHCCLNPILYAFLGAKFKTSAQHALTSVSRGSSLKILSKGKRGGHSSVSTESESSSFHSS
Method: Human embryonic kidney (HEK-293) cells were maintained and harvested as described above. Cells were plated in 96-well, black clear bottom, poly-lysine coated plates at a concentration of 40,000 cells per well in a final volume of 100 ul containing human CXCR4 BacMam (MOI=25) and Gqi5 BacMam (MOI=12.5). The cells were incubated at 37° C., 5% CO2, 95% humidity for 24 h to allow for protein expression.
After the required incubation time the cells were washed once with 50 ul of fresh serum-free DMEM/F12 media containing probenicid. 50 ul of dye solution was then added to the cells (Calcium Plus Assay Kit Dye; Molecular Devices) was dissolved in 200 ml of the above probenicid/BSA containing media and incubated for 1 h. Cell plates were transferred to a Fluorometric Imaging Plate Reader (FLIPR). Upon addition the effect of the compounds on the change in [Ca^2+]i was examined to determine if the compounds were agonists or antagonists (ability to block SDF-1 alpha activity) at the CXCR4 receptor. IC50 values are determined and pKb values are calculated using the Leff and Dougall equation: KB=IC50/((2+([agonist]/EC50̂b)̂1/b -1) Where IC50 is that defined by the antagonist concentration-response curve [agonist] is the EC80 concentration of agonist used EC50 is that defined by the agonist concentration-response curve b is the slope of the agonist concentration-response curve.

[3] = Compound cytotoxicity in the absence of virus (CellTiter-Glo); settings: human; non-infected HOS cultures, cell viability; read-out: Cytotox (pIC50) (converted)
Method: (§1) Compounds were profiled against two HIV-1 viruses, the M-tropic (CCR5 utilizing) Ba-L strain and the T-tropic (CXCR4 utilizing) IIIB strain. Both viruses were propagated in human peripheral blood lymphocytes. Compounds were tested for there ability to block infection of the HOS cell line (expressing hCXCR4/hCCR5/hCD4/pHIV-LTR-luciferase) by either HIV-1 Ba-L or HIV-1 IIIB. Compound cytotoxicity was also examined in the absence of virus addition.
(§2) HOS cells (expressing hCXCR4/hCCR5/hCD4/pHIV-LTR-luciferase) were harvested and diluted in Dulbeccos modified Eagles media supplemented with 2% FCS and non-essential amino acid to a concentration of 60,000 cells/ml. The cells were plated into 96-well plates (100 ul per well) and the plates were placed in a tissue culture incubator (37° C.; 5% CO2/95% air) for a period of 24 h.
(§3) Subsequently, 50 ul of the desired drug solution (4 times the final concentration) was added to each well and the plates were returned to the tissue culture incubator (37° C.; 5% CO2/95% air) for 1 h. Following this incubation 50 ul of diluted virus was added to each well (approximately 2 million RLU per well of virus). The plates were returned to the tissue culture incubator (37° C.; 5% CO2/95% air) and were incubated for a further 96 h.
(§4) Following this incubation the endpoint for the virally infected cultures was quantified following addition of Steady-Glo Luciferase assay system reagent (Promega, Madison, Wis.). Cell viability or non-infected cultures was measured using a CellTiter-Glo luminescent cell viability assay system (Promega, Madison, Wis.). All luminescent readouts are performed on a Topcount luminescence detector (Packard, Meridien, Conn.).

[4] = test system: HIV-1 IIIB strain, T-tropic (CXCR4 utilizing); experiment: HOS HIV-1 infectivity assay
Method: as §1, §2, §3, §4

[5] = Human immunodeficiency virus 1, IIIB, HOS HIV anti-infectivity assay, strain not named in Table 2, read-out: Activity Level
[6] = Human immunodeficiency virus 1, HOS cells, HIV-1 IIIB, 96 h, luciferase, read-out: HOS (3B)

Compound	IC50 [1]	IC50 [2]	IC50 at 96 h [3]	IC50 [4, 5]	IC50 [4, 6]	IC50 ([4]; Human immunodeficiency virus 1, IIIB, HOS, 96 h, read-out: HOS (3B) (μM))	IC50 ([4]; Human immunodeficiency virus 1, IIIB, read-out: Activity Level)
NCCCCN(Cc1cn2c(C(F)(F)F)cccc2n1)C1CCCc2cccnc21 (stereo not shown) [Example 8, N-(5,6,7,8-Tetrahydro-8-quinolinyl)-N-{[5-(trifluoromethyl)imidazo[1,2-a]pyridin-2-yl]methyl}-1,4-butanediamine]	174 nM	19.5 nM	> 100000 nM	< 0.1 µM	0.045 µM		
NCCCCN(Cc1cn2c(N3CCCC3)cccc2n1)C1CCCc2cccnc21 (stereo not shown) [Example 21, N-{[5-(1-Pyrrolidinyl)imidazo[1,2-a]pyridin-2-yl]methyl}-N-(5,6,7,8-tetrahydro-8-quinolinyl)-1,4-butanediamine]	102 nM	20 nM	> 100000 nM			0.038 µM	< 0.1 µM
NCCCCN(Cc1cn2c(N)cccc2n1)C1CCCc2cccnc21 (stereo not shown) [Example 26, N-[(5-Aminoimidazo[1,2-a]pyridin-2-yl)methyl]-N-(5,6,7,8-tetrahydro-8-quinolinyl)-1,4-butanediamine]	39.8 nM	11.5 nM	> 100000 nM	< 0.1 µM	0.014 µM		
NCCCCN(Cc1cn2cc(C(F)(F)F)ccc2n1)C1CCCc2cccnc21 (stereo not shown) [Example 7, N-(5,6,7,8-Tetrahydro-8-quinolinyl)-N-{[6-(trifluoromethyl)imidazo[1,2-a]pyridin-2-yl]methyl}-1,4-butanediamine]	191 nM	63.1 nM	> 100000 nM	0.1 to 0.5 µM	0.161 µM		
Cc1cc(Br)cn2cc(CN(CCCCN)C3CCCc4cccnc43)nc12 (stereo not shown) [Example 19, N-[(6-Bromo-8-methylimidazo[1,2-a]pyridin-2-yl)methyl]-N-(5,6,7,8-tetrahydro-8-quinolinyl)-1,4-butanediamine]	537 nM	67.6 nM	> 100000 nM	0.1 to 0.5 µM	0.14 µM		
NCCCCN(Cc1cn2c(Cl)cccc2n1)C1CCCc2cccnc21 (stereo not shown) [Example 13, N-[(5-Chloroimidazo[1,2-a]pyridin-2-yl)methyl]-N-(5,6,7,8-tetrahydro-8-quinolinyl)-1,4-butanediamine]	91.2 nM	40.7 nM	> 100000 nM	< 0.1 µM	0.025 µM		
Cc1ccn2cc(CN(CCCCN)C3CCCc4cccnc43)nc2c1 (stereo not shown) [Example 3, N-[(7-Methylimidazo[1,2-a]pyridin-2-yl)methyl]-N-(5,6,7,8-tetrahydro-8-quinolinyl)-1,4-butanediamine]	813 nM	759 nM	> 100000 nM	0.1 to 0.5 µM	0.223 µM		
Cc1cc(C)n2cc(CN(CCCCN)C3CCCc4cccnc43)nc2c1 (stereo not shown) [Example 15, N-[(5,7-Dimethylimidazo[1,2-a]pyridin-2-yl)methyl]-N-(5,6,7,8-tetrahydro-8-quinolinyl)-1,4-butanediamine]	316 nM	93.3 nM	> 100000 nM	0.1 to 0.5 µM	0.112 µM		
N#Cc1ccc2nc(CN(CCCCN)C3CCCc4cccnc43)cn2c1 (stereo not shown) [Example 9, 2-{[(4-Aminobutyl)(5,6,7,8-tetrahydro-8-quinolinyl)amino]methyl}imidazo [1,2-a]pyridine-6-carbonitrile]	372 nM	112 nM	> 100000 nM	0.1 to 0.5 µM	0.112 µM		
NCCCCN(Cc1cn2c(Br)cccc2n1)C1CCCc2cccnc21 (stereo not shown) [Example 12, N-[(5-Bromoimidazo[1,2-a]pyridin-2-yl)methyl]-N-(5,6,7,8-tetrahydro-8-quinolinyl)-1,4-butanediamine]	28.8 nM	9.77 nM	> 100000 nM	< 0.1 µM	0.01 µM		
NCCCCN(Cc1cn2c(N3CCNCC3)cccc2n1)C1CCCc2cccnc21 (stereo not shown) [Example 22, N-{[5-(1-piperazinyl)imidazo[1,2-a]pyridin-2-yl]methyl}-N-(5,6,7,8-tetrahydro-8-quinolinyl)-1,4-butanediamine]	2.82 nM	2.88 nM	> 100000 nM	< 0.1 µM	0.0022 µM		
